According to PMC6017250, “Novel Inhibitor Discovery of Staphylococcus aureus Sortase B and the Mechanism Confirmation via Molecular Modeling” (Molecules : A Journal of Synthetic Chemistry and Natural …, 2018):
pKd: −log10 of the molar value.

Assays:
Type in all cases: binding
Sortase B (SrtBΔ30) [1] = biological target: T1, Sortase B (SrtBΔ30) (Staphylococcus aureus, UniProt Q2FZE3, R115A); test: fluorescence spectroscopy quenching (association constant KA)
T1 construct: gene srtB; SrtBΔ30
T1 sequence (Q2FZE3 31-244 R115A): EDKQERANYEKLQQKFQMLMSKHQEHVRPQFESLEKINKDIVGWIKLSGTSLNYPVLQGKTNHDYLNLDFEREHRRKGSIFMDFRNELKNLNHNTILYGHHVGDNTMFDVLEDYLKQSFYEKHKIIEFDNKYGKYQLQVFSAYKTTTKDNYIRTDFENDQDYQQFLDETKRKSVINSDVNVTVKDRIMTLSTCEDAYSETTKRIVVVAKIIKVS
Excerpt: (§1) fluorescence spectroscopy quenching (association constant KA) on Sortase B (SrtBΔ30) | the binding constants (KA) of the ligand with the mutant proteins were lower

Sortase B (SrtBΔ30) [2] = biological target: T2, Sortase B (SrtBΔ30) (Staphylococcus aureus, UniProt Q2FZE3, N116A); test: as above
T2 construct: gene srtB; SrtBΔ30
T2 sequence (Q2FZE3 31-244 N116A): T1 sequence (Q2FZE3 31-244 R115A)
Excerpt: as §1

Sortase B (SrtBΔ30) [3] = biological target: T3, Sortase B (SrtBΔ30) (Staphylococcus aureus, UniProt Q2FZE3, I182A); test: as above
T3 construct: gene srtB; SrtBΔ30
T3 sequence (Q2FZE3 31-244 I182A): T1 sequence (Q2FZE3 31-244 R115A)
Excerpt: as §1

Sortase B (SrtBΔ30, WT) = biological target: T4, Sortase B (SrtBΔ30, WT) (Staphylococcus aureus, UniProt Q2FZE3); test: fluorescence spectroscopy quenching (association constant KA); also FRET peptide-cleavage inhibition of the purified enzyme, IC50 […]
T4 construct: gene srtB; SrtBΔ30

In the case of c1c2c(cc3c1OCO3)-c1cc3ccc4c(c3c[n+]1CC2)OCO4 [coptisine], the pKd (Sortase B (SrtBΔ30) [1]) was 4.92, the pKd (Sortase B (SrtBΔ30) [2]) was 4.96 and the pKd (Sortase B (SrtBΔ30) [3]) was 4.89. The pKd (Sortase B (SrtBΔ30, WT)) was 5.13.
